Data as given in patent US8492559B2, “Substituted indole compounds” (Gruenenthal GmbH, priority 2009, dated 2013).

What follows are compounds tested against T1, B1R receptor of the rat (rB1R) (Rattus norvegicus, UniProt P97583) (assay: Functional investigation on the bradykinin 1 receptor (B1R), FLIPR Ca2+ assay, rB1R cells). Conditions: CHO-K1, 10 μM test substance; CHO K1 cells with rat B1R; agonist Des-Arg9 bradykinin; % of maximum achievable inhibition; read-out: B1R antagonism, rat [10 μM] % inhibition.
T1 construct: expressed in transfected cells; host or cells: CHO K1 cells
T1 sequence (P97583 1-337): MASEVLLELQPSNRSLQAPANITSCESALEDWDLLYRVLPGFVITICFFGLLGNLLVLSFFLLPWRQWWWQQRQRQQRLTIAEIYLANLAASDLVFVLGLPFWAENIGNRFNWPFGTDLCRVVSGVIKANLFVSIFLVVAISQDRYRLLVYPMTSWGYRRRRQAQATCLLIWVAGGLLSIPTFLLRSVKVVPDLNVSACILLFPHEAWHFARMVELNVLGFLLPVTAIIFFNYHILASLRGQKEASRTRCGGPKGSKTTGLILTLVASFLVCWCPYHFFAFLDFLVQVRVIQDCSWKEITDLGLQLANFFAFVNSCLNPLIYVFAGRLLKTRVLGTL
Assay type: cell-based
Outline: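 Cells plated at 20,000-35,000/well, incubated overnight at 37° C, loaded with Fluo-4 (2.13 μM, 60 min, 37° C, or 2.5 μM in buffer A), then read in FLIPR (λex 488, λem 540 nm). Agonist: Lys-Des-[MUT] bradykinin (0.5 nM) or Des-[MUT] bradykinin (100 nM). IC50 from % inhibition versus maximum, n=2-3, N>=2.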

Structure (SMILES)	inhibition at 10 µM [%]
Cc1cc(S(=O)(=O)Nc2ccc3ccn(CCC(=O)NCCC4CCN(c5ccncc5)CC4)c3c2)c(C)cc1Cl [G_CC-71, 3-[6-[[(4-Chloro-2,5-dimethyl-phenyl)sulfonyl]amino]-1H-indol-1-yl]-N-[2-(1-pyridin-4-yl-piperidin-4-yl)-ethyl]-propionamide]	54
Cc1cc(S(=O)(=O)Nc2cccc3ccn(CCC(=O)NCCN4CCC(c5cccs5)(N(C)C)CC4)c23)c(C)cc1Cl [G_CC-73, 3-[7-[[(4-Chloro-2,5-dimethyl-phenyl)sulfonyl]amino]-1H-indol-1-yl]-N-[2-(4-dimethylamino-4-thiophen-2-yl-piperidin-1-yl)-ethyl]-propionamide]	55
Cc1cc(S(=O)(=O)Nc2ccc3ccn(CCC(=O)NCCN4CCC(c5cccs5)(N(C)C)CC4)c3c2)c(C)cc1Cl [G_CC-74, 3-[6-[[(4-Chloro-2,5-dimethyl-phenyl)sulfonyl]amino]-1H-indol-1-yl]-N-[2-(4-dimethylamino-4-thiophen-2-yl-piperidin-1-yl)-ethyl]-propionamide]	51
COc1cc(C)c(S(=O)(=O)Nc2cccc3ccn(CC(=O)N(C)CCC4CCC(c5ccccc5)(N(C)C)CC4)c23)c(C)c1 (centres unmarked) [G_CC-77, N-[2-(4-Dimethylamino-4-phenyl-cyclohexyl)-ethyl]-2-[7-[[(4-methoxy-2,6-dimethyl-phenyl)sulfonyl]amino]-1H-indol-1-yl]-N-methyl-acetamide]	104
COc1cc(C)c(S(=O)(=O)Nc2ccc3ccn(CCC(=O)N(C)CCN4CCC(c5cccc(F)c5)(N5CCN(C)CC5)CC4)c3c2)c(C)c1 [G_CC-81, N-[2-[4-(3-Fluorophenyl)-4-(4-methyl-piperazin-1-yl)-piperidin-1-yl]-ethyl]-3-[6-[[(4-methoxy-2,6-dimethyl-phenyl)sulfonyl]amino]-1H-indol-1-yl]-N-methyl-propionamide]	103
COc1cc(C)c(S(=O)(=O)Nc2cccc3ccn(CC(=O)N4CCC(c5cccc(F)c5)(N5CCN(C)CC5)CC4)c23)c(C)c1 [G_CC-84, N-[1-[2-[4-(3-Fluorophenyl)-4-(4-methyl-piperazin-1-yl)-piperidin-1-yl]-2-oxo-ethyl]-1H-indol-7-yl]-4-methoxy-2,6-dimethyl-benzenesulfonic acid amide]	102
COc1cc(C)c(S(=O)(=O)Nc2cccc3ccn(CC(=O)N4CCC(Oc5ccncc5)CC4)c23)c(C)c1 [G_CC-92, 4-Methoxy-2,6-dimethyl-N-[1-[2-oxo-2-(4-pyridin-4-yloxy-piperidin-1-yl)-ethyl]-1H-indol-7-yl]-benzenesulfonic acid amide]	98
COc1cc(C)c(S(=O)(=O)Nc2ccc3ccn(CC(=O)N(C)CCC4CCC(c5ccccc5)(N(C)C)CC4)c3c2)c(C)c1 (centres unmarked) [G_CC-95, N-[2-(4-Dimethylamino-4-phenyl-cyclohexyl)-ethyl]-2-[6-[[(4-methoxy-2,6-dimethyl-phenyl)sulfonyl]amino]-1H-indol-1-yl]-N-methyl-acetamide]	96
COc1cc(C)c(S(=O)(=O)Nc2ccc3ccn(CC(=O)N(C)CCN4CCC(c5cccc(F)c5)(N5CCN(C)CC5)CC4)c3c2)c(C)c1 [G_CC-99, N-[2-[4-(3-Fluorophenyl)-4-(4-methyl-piperazin-1-yl)-piperidin-1-yl]-ethyl]-2-[6-[[(4-methoxy-2,6-dimethyl-phenyl)sulfonyl]amino]-1H-indol-1-yl]-N-methyl-acetamide]	93
COc1cc(C)c(S(=O)(=O)Nc2cccc3ccn(CC(=O)N(C)CCN4CCC(c5cccc(F)c5)(N5CCN(C)CC5)CC4)c23)c(C)c1 [G_CC-102, N-[2-[4-(3-Fluorophenyl)-4-(4-methyl-piperazin-1-yl)-piperidin-1-yl]-ethyl]-2-[7-[[(4-methoxy-2,6-dimethyl-phenyl)sulfonyl]amino]-1H-indol-1-yl]-N-methyl-acetamide]	89
COc1cc(C)c(S(=O)(=O)Nc2ccc3ccn(CC(=O)N4CCC(CNC(=O)c5ccncc5)(N5CCN(C)CC5)CC4)c3c2)c(C)c1 [G_CC-108, N-[[1-[2-[6-[[(4-Methoxy-2,6-dimethyl-phenyl)sulfonyl]amino]-1H-indol-1-yl]-acetyl]-4-(4-methyl-piperazin-1-yl)-piperidin-4-yl]-methyl]-pyridine-4-carboxylic acid amide]	84
COc1cc(C)c(S(=O)(=O)Nc2ccc3ccn(CCC(=O)N(C)CCCN4CCN(c5ccncc5)CC4)c3c2)c(C)c1 [G_CC-116, 3-[6-[[(4-Methoxy-2,6-dimethyl-phenyl)sulfonyl]amino]-1H-indol-1-yl]-N-methyl-N-[3-(4-pyridin-4-yl-piperazin-1-yl)-propyl]-propionamide]	74
COc1cc(C)c(S(=O)(=O)Nc2ccc3ccn(CCC(=O)N(C)CCC4CCC(c5ccccc5)(N(C)C)CC4)c3c2)c(C)c1 (centres unmarked) [G_CC-117, N-[2-(4-Dimethylamino-4-phenyl-cyclohexyl)-ethyl]-3-[6-[[(4-methoxy-2,6-dimethyl-phenyl)sulfonyl]amino]-1H-indol-1-yl]-N-methyl-propionamide]	74
COc1cc(C)c(S(=O)(=O)Nc2ccc3ccn(CC(=O)N4CCC(CCN5CCCC5)CC4)c3c2)c(C)c1 [G_CC-120, 4-Methoxy-2,6-dimethyl-N-[1-[2-oxo-2-[4-(2-pyrrolidin-1-yl-ethyl)-piperidin-1-yl]-ethyl]-1H-indol-6-yl]-benzenesulfonic acid amide]	72

Other lines, results leading:

inhibition at 10 µM [%]	Structure (SMILES)
71	O=C(CCn1ccc2ccc(N3Cc4cccc(Cl)c4C3=O)cc21)NCCC1CCN(c2ccncc2)CC1 [G_CC-72, 3-[6-(4-Chloro-3-oxo-1,2-dihydro-isoindol-2-yl)-1H-indol-1-yl]-N-[2-(1-pyridin-4-yl-piperidin-4-yl)-ethyl]-propionamide]
88	O=C(Cn1ccc2ccc(N3Cc4cccc(Cl)c4C3=O)cc21)NCCC1CCN(c2ccncc2)CC1 [G_CC-103, 2-[6-(4-Chloro-3-oxo-1,2-dihydro-isoindol-2-yl)-1H-indol-1-yl]-N-[2-(1-pyridin-4-yl-piperidin-4-yl)-ethyl]-acetamide]
86	O=C(CCn1ccc2cccc(N3Cc4cccc(Cl)c4C3=O)c21)N1CCC2(CC1)CCN(c1ccncc1)CC2 [G_CC-106, 7-Chloro-2-[1-[3-oxo-3-(3-pyridin-4-yl-3,9-diazaspiro[5.5]undecan-9-yl)-propyl]-1H-indol-7-yl]-2,3-dihydro-isoindol-1-one]
81	O=C(Cn1ccc2ccc(N3Cc4cccc(Cl)c4C3=O)cc21)NCC1CCN(c2ccncc2)CC1 [G_CC-111, 2-[6-(4-Chloro-3-oxo-1,2-dihydro-isoindol-2-yl)-1H-indol-1-yl]-N-[(1-pyridin-4-yl-piperidin-4-yl)-methyl]-acetamide]
78	CN1CCN(C2(c3cccc(F)c3)CCN(CCN(C)C(=O)Cn3ccc4ccc(N5Cc6cccc(Cl)c6C5=O)cc43)CC2)CC1 [G_CC-113, 2-[6-(4-Chloro-3-oxo-1,2-dihydro-isoindol-2-yl)-1H-indol-1-yl]-N-[2-[4-(3-fluorophenyl)-4-(4-methyl-piperazin-1-yl)-piperidin-1-yl]-ethyl]-N-methyl-acetamide]
72	CN(CCCN1CCN(c2ccncc2)CC1)C(=O)CCn1ccc2ccc(N3Cc4cccc(Cl)c4C3=O)cc21 [G_CC-119, 3-[6-(4-Chloro-3-oxo-1,2-dihydro-isoindol-2-yl)-1H-indol-1-yl]-N-methyl-N-[3-(4-pyridin-4-yl-piperazin-1-yl)-propyl]-propionamide]
